# Assay results taken from patent publication US6677368B2, “4-aryl substituted indolinones” (Sugen, Inc., priority 2000, dated 2004).
# Legend:
# FLK-1 = molecular target: T1, FLK-1 (Mus musculus, UniProt P35918); assay: GST-FLK-1 bioassay (tyrosine kinase activity on poly(glu-tyr)); format: biochemical; details: GST-Flk1, poly(glu-tyr) substrate, 0.5 μM ATP
# T1 construct: GST-Flklcd purified from sf9 recombinant baculovirus transfomnation (SUGEN, Inc.); host or cells: Sf9 insect cells, recombinant baculovirus
# Experimental: This assay analyzes the tyrosine kinase activity of GST-Flk1 on poly(glu-tyr) peptides.
# 1. Corning 96-well ELISA plates (Corning Catalog No. 25805-96).
# 2. poly(glu-tyr) 4:1, lyophilizate (Sigma Catalog No. P0275), 1 mg/ml in sterile PBS.
# 3. PBS Buffer: for 1 L, mix 0.2 g KH2PO4, 1.15 g Na2HPO4, 0.2 g KCl and 8 g NaCl in approx. 900 ml dH2O. When all reagents have dissolved, adjust the pH to 7.2 with HCl. Bring total volume to 1 L with dH2O.
# 4. PBST Buffer: to 1 L of PBS Buffer, add 1.0 ml Tween-20.
# 5. TBB—Blocking Buffer: for 1 L, mix 1.21 g TRIS, 8.77 g NaCl, 1 ml TWEEN-20 in approximately 900 ml dH2O. Adjust pH to 7.2 with HCl. Add 10 g BSA, stir to dissolve. Bring total volume to 1 L with dH2O. Filter to remove particulate matter.
# 6. 1% BSA in PBS: add 10 g BSA to approx. 990 ml PBS buffer, stir to dissolve. Adjust total volume to 1 L with PBS buffer, filter to remove particulate matter.
# 8. GST-Flklcd purified from sf9 recombinant baculovirus transfomnation (SUGEN, Inc.).
# 12. Kinase Dilution Buffer (KDB): mix 10 ml Hepes (pH 7.5), 1 ml 5M NaCl, 40 μL 100 mM sodium orthovanadate and 0.4 ml of 5% BSA in dH2O with 88.56 ml dH2O.
# 13. NUNC 96-well V bottom polypropylene plates, Applied Scientific Catalog #AS-72092
# 14. EDTA: mix 14.12 g ethylenediaminetetraacetic acid (EDTA) with approx. 70 ml dH2O. Add 10 N NaOH until EDTA dissolves. Adjust pH to 8.0. Adjust total volume to 100 ml with dH2O.
# 15. 1° and 2° Antibody Dilution Buffer: mix 10 ml of 5% BSA in PBS buffer with 89.5 ml TBST.
# 16. Anti-phosphotyrosine rabbit polyclonal antisera (SUGEN, Inc.)
# 17. Goat anti-rabbit HRP conjugate.
# 18. ABST solution: To approx. 900 ml dH2O add 19.21 g citric acid and 35.49 g Na2HPO4. Adjust pH to 4.0 with phosphoric acid. Add 2,2′-Azinobis(3-ethyl-benzthiazoline-6-sulfonic acid (ABTS, Sigma, Cat. No. A-1888, hold for approx. ½ hour, filter.
# 19. 30% Hydrogen Peroxide.
# 20. ABST/H2O2: add 3 μl of H2O2 to 15 ml of ABST solution.
# 1. Coat Corning 96-well ELISA plates with 2 μg of polyEY in 100 μl PBS/well, hold at room temperature for 2 hours or at […] overnight. Cover plates to prevent evaporation.
# 2. Remove unbound liquid from wells by inverting plate. Wash once with TBST. Pat the plate on a paper towel to remove excess liquid.
# 3. Add 100 μl of 1% BSA in PBS to each well. Incubate, with shaking, for 1 hr. at room temperature.
# 5. Soak wells with 50 mM HEPES (pH7.5, 150 μl/well).
# 6. Dilute test compound with dH2O/4% DMSO to 4 times the desired final assay concentration in 96-well polypropylene plates.
# 7. Add 25 μl diluted test compound to each well of ELISA plate. In control wells, place 25 μl of dH2O/4% DMSO.
# 8. Dilute GST-Flk1 0.005 μg (5 ng)/well in KDB.
# 9. Add 50 μl of diluted enzyme to each well.
# 10. Add 25 μl 0.5 M EDTA to negative control wells.
# 11. Add 25 μl of 40 mM MnCl2 with 4×ATP (2 μM) to all wells (100 μl final volume, 0.5 μM ATP final concentration in each well).
# 12. Incubate, with shaking, for 15 minutes at room temperature.
# 13. Stop reaction by adding 25 μl of 500 mM EDTA to each well.
# 14. Wash 3× with TBST and pat plate on paper towel to remove excess liquid.
# 15. Add 100 μl per well anti-phosphotyrosine antisera, 1:10,000 dilution in antibody dilution buffer. Incubate, with shaking, for 90 min. at room temperature.
# 17. Add 100 μl/well of goat anti-rabbit HRP conjugate (1:6,000 in antibody dilution buffer). Incubate, with shaking, for 90 minutes are room temperature.
# 19. Add 100 μl room temperature ABST/H2O2 solution to each well.
# 20. Incubate, with shaking for 15 to 30 minutes at room temperature.
# 21. If necessary, stop reaction by adding 100 μl of 0.2 M HCl to each well.
# 22. Read results on Dynatech MR7000 ELISA reader with test filter at 410 nM and reference filter at 630 nM.
# P38 = P38 (Homo sapiens, UniProt Q16539); assay: P38 kinase inhibition; format: biochemical
# Chain of P38 (Q16539 whole entry): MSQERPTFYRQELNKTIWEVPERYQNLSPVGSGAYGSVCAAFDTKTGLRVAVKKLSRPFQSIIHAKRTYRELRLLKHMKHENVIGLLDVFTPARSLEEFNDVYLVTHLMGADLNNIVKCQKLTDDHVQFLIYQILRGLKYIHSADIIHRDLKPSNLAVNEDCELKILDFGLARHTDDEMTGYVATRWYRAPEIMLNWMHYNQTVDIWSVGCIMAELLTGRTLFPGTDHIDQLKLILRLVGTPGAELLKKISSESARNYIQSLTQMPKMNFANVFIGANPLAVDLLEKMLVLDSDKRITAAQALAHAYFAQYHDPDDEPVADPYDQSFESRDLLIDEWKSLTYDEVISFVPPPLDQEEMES
# T1 sequence (P35918 784-1345 limits assumed): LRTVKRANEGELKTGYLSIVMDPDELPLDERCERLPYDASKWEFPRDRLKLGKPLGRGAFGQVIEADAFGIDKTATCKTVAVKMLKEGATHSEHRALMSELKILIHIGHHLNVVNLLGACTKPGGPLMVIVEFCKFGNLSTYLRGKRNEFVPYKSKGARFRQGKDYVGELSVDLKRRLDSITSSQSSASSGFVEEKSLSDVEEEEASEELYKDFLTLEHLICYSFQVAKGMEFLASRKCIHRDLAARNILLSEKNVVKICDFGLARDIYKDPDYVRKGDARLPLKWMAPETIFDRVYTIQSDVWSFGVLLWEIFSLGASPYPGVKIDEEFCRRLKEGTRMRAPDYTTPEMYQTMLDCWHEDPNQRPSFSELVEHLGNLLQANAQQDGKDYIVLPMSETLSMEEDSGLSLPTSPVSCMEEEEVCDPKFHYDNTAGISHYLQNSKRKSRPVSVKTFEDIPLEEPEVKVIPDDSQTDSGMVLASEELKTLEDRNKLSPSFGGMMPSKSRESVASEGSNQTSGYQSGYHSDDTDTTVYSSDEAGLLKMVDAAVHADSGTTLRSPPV
Compound,IC50 (FLK-1) [nM],IC50 (P38) [nM]
"Cc1cc(C(=O)NCCn2ccnn2)c(/C=C2\C(=O)Nc3cccc(-c4cccc(Cl)c4)c32)[nH]1 [Example 34, 2-[4-(3-Chloro-phenyl)-2-oxo-1,2-dihydro-indol-3-ylidenemethyl]-5-methyl-1H-pyrrole-3-carboxylic Acid (2-[1,2,3]Triazol-1-yl-ethyl)-amide]",1060,> 10000
"Cc1cc(C(=O)N2C[C@@H](C)N[C@@H](C)C2)c(/C=C2\C(=O)Nc3cccc(-c4cccc(Cl)c4)c32)[nH]1 [Example 35, 4-(3-Chloro-phenyl)-3-[3-((cis)-3,5-dimethyl-piperazine-1-carbonyl)-5-methyl-1H-pyrrol-2-ylmethylene]-1,3-dihydro-indol-2-one]",92,> 10000
"COc1ccc(-c2cccc3c2/C(=C/c2[nH]c(C)c(C(=O)NCCN4CCCC4)c2C)C(=O)N3)cc1 [Example 38, 5-[4-(4-Methoxy-phenyl)-2-oxo-1,2-dihydro-indol-3-ylidenemethyl]-2,4-dimethyl-1H-pyrrole-3-carboxylic Acid (2-Pyrrolidin-1-yl-ethyl)-amide]",29,> 10000
"COc1ccc(-c2cccc3c2/C(=C/c2[nH]c(C)c(C(=O)N4C[C@@H](C)N[C@@H](C)C4)c2C)C(=O)N3)cc1 [Example 40, 3-[4-((cis)-3,5-Dimethyl-piperazine-1-carbonyl)-3,5-dimethyl-1H-pyrrol-2-ylmethylene]-4-(4-methoxy-phenyl)-1,3-dihydro-indol-2-one]",41,> 10000
"COc1ccc(-c2cccc3c2/C(=C/c2[nH]c(C)cc2C(=O)NCCN2CCCC2)C(=O)N3)cc1 [Example 41, 2-[4-(4-Methoxy-phenyl)-2-oxo-1,2-dihydro-indol-3-ylidenemethyl]-5-methyl-1H-pyrrole-3-carboxylic Acid (2-Pyrrolidin-1-yl-ethyl)-amide]",79,> 10000
"CCN(CC)CCNC(=O)c1c(C)[nH]c(/C=C2\C(=O)Nc3cccc(-c4cccc(OC)c4)c32)c1C [Example 46, 5-[4-(3-Methoxy-phenyl)-2-oxo-1,2-dihydro-indol-3-ylidenemethyl]-2,4-dimethyl-1H-pyrrole-3-carboxylic Acid (2-Diethylamino-ethyl)-amide]",9,> 10000
"COc1cccc(-c2cccc3c2/C(=C/c2[nH]c(C)c(C(=O)NCCn4ccnn4)c2C)C(=O)N3)c1 [Example 48, 5-[4-(3-Methoxy-phenyl)-2-oxo-1,2-dihydro-indol-3-ylidenemethyl]-2,4-dimethyl-1H-pyrrole-3-carboxylic Acid (2-[1,2,3]Triazol-1-yl-ethyl)-amide]",12,> 10000
"COc1cccc(-c2cccc3c2/C(=C/c2[nH]c(C)c(C(=O)NCCN(C(C)C)C(C)C)c2C)C(=O)N3)c1 [Example 52, 5-[4-(3-Methoxy-phenyl)-2-oxo-1,2-dihydro-indol-3-ylidenemethyl]-2,4-dimethyl-1H-pyrrole-3-carboxylic Acid (2-Diisopropylamino-ethyl)-amide]",5,> 10000
Cc1[nH]c(/C=C2\C(=O)Nc3cccc(-c4ccc(Br)cc4)c32)c(C)c1C(=O)N1CCN(C)CC1 [Example 53],21,> 10000
"Cc1[nH]c(/C=C2\C(=O)Nc3cccc(-c4ccc(Br)cc4)c32)c(C)c1C(=O)N1C[C@@H](C)N[C@@H](C)C1 [Example 57, 4-(4-Bromo-phenyl)-3-[4-[(cis)-3,5-dimethyl-piperazine-1-carbonyl)-3,5-dimethyl-1H-pyrrol-2-ylmethylene]-1,3-dihydro-indol-2-one]",29,> 10000
"Cc1cc(C(=O)NCCN2CCCC2)c(/C=C2\C(=O)Nc3cccc(-c4ccc(Br)cc4)c32)[nH]1 [Example 58, 2-[4-(4-Bromo-phenyl)-2-oxo-1,2-dihydro-indol-3-ylidenemethyl]-5-methyl-1H-pyrrole-3-carboxylic Acid (2-Pyrrolidin-1-yl-ethyl)-amide]",54,> 10000
"Cc1[nH]c(/C=C2\C(=O)Nc3cccc(-c4ccc(Br)cc4)c32)c(C)c1C(=O)NCCN(C(C)C)C(C)C [Example 60, 5-[4-(4-Bromo-phenyl)-2-oxo-1,2-dihydro-indol-3-ylidenemethyl]-2,4-dimethyl-1H-pyrrole-3-carboxylic Acid (2-Diisopropylamino-ethyl)-amide]",18,7900
"CCN(CC)CCNC(=O)c1c[nH]c(/C=C2\C(=O)Nc3cccc(-c4ccc(Br)cc4)c32)c1C [Example 61, 5-[4-(4-Bromo-phenyl)-2-oxo-1,2-dihydro-indol-3-ylidenemethyl]-4-methyl-1H-pyrrole-3-carboxylic Acid (2-Diethylamino-ethyl)-amide]",6,6300
